Measurements from US9732077B2, “Diazepane orexin receptor antagonists” (MERCK SHARP & DOHME CORP., priority 2013, dated 2017).

Key:
human orexin-2 receptor = biological target: T1, human orexin-2 receptor (Homo sapiens, UniProt O43614); test: OX2R FLIPR Ca flux assay (CHO cells); format: cell-based; conditions: for IC50: CHO cells expressing human orexin-2 receptor, agonist 70 pM Ala-6,12 orexin-A; for Fold Selectivity OX2R vs. OX1R: ratio of OX1R FLIPR to OX2R FLIPR
T1 construct: expressed in transfected cells; host or cells: CHO cells (G418 selection)
T1 sequence (O43614 1-444): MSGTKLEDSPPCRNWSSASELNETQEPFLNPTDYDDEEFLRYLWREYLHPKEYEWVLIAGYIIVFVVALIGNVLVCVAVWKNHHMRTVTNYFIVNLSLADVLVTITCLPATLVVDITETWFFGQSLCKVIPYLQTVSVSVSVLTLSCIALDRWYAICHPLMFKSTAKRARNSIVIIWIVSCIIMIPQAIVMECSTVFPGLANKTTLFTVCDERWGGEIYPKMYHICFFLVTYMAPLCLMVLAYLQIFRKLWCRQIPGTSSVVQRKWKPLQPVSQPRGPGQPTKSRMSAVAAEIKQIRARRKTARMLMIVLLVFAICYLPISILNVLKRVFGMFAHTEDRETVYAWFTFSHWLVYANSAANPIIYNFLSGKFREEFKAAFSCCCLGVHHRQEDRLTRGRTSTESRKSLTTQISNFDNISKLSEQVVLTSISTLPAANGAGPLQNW
Procedure: (§1) The utility of the compounds in accordance with the present invention as orexin receptor OX1R and/or OX2R antagonists may be readily determined without undue experimentation by methodology well known in the art, including the “FLIPR Ca^+ Flux Assay” (Okumura et al., Biochem. Biophys. Res. Comm. 280:976-981, 2001). In a typical experiment the OX1 and OX2 receptor antagonistic activity of the compounds of the present invention was determined in accordance with the following experimental method. For intracellular calcium measurements, Chinese hamster ovary (CHO) cells expressing the rat orexin-1 receptor or the human orexin-2 receptor, are grown in Iscove's modified DMEM containing 2 mM L-glutamine, […], 1% hypoxanthine-thymidine supplement, 100 U/ml penicillin, 100 μg/ml streptomycin and 10% heat-inactivated fetal calf serum (FCS). The cells are seeded at 20,000 cells/well into Becton-Dickinson black 384-well clear bottom sterile plates coated with poly-D-lysine. All reagents were from GIBCO-Invitrogen Corp. The seeded plates are incubated overnight at 37° C. and 5% CO2. Ala-6,12 human orexin-A as the agonist is prepared as a 1 mM stock solution in 1% bovine serum albumin (BSA) and diluted in assay buffer (HBSS containing 20 mM HEPES, 0.1% BSA and 2.5 mM probenecid, pH7.4) for use in the assay at a final concentration of 70 pM. Test compounds are prepared as 10 mM stock solution in DMSO, then diluted in 384-well plates, first in DMSO, then assay buffer. On the day of the assay, cells are washed 3 times with 100 μl assay buffer and then incubated for 60 min (37° C., 5% CO2) in 60 μl assay buffer containing 1 μM Fluo-4AM ester, 0.02% pluronic acid, and 1% BSA. The dye loading solution is then aspirated and cells are washed 3 times with 100 μl assay buffer. 30 μl of that same buffer is left in each well. Within the Fluorescent Imaging Plate Reader (FLIPR, Molecular Devices), test compounds are added to the plate in a volume of 25 μl, incubated for 5 min and finally 25 μl of agonist is added. Fluorescence is measured for each well at 1 second intervals for 5 minutes and the height of each fluorescence peak is compared to the height of the fluorescence peak induced by 70 pM Ala-6,12 orexin-A with buffer in place of antagonist. For each antagonist, IC50 value (the concentration of compound needed to inhibit 50% of the agonist response) is determined. Alternatively, compound potency can be assessed by a radioligand binding assay (described in Bergman et. al. Bioorg. Med. Chem. Lett. 2008, 18, 1425-1430) in which the inhibition constant (Ki) is determined in membranes prepared from CHO cells expressing either the OX1 or OX2 receptor. The intrinsic orexin receptor antagonist activity of a compound which may be used in the present invention may be determined by these assays.

rat orexin-1 receptor = biological target: T2, rat orexin-1 receptor (Rattus norvegicus, UniProt P56718); test: OX1R FLIPR Ca flux assay (CHO cells); format: cell-based; conditions: CHO cells expressing rat orexin-1 receptor; agonist 70 pM Ala-6,12 orexin-A
T2 construct: expressed in transfected cells; host or cells: CHO cells (G418 selection)
T2 sequence (P56718 1-416): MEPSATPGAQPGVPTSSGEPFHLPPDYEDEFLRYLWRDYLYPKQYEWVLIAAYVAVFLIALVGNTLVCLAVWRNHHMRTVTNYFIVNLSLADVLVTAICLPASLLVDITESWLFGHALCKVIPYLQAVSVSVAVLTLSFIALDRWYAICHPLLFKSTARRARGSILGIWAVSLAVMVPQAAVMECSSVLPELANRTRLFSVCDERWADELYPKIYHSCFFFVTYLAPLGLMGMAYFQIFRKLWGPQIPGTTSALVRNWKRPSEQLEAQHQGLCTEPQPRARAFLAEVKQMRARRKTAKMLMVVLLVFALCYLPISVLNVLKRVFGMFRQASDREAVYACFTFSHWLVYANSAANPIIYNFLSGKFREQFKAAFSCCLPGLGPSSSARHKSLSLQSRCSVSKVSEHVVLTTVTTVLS
Procedure: as §1

SMILES	IC50 (human orexin-2 receptor) [nM]	Fold Selectivity OX2R vs. OX1R (human orexin-2 receptor) [fold]	IC50 (rat orexin-1 receptor) [nM]
Cc1oc(N2CCCN(C(=O)c3ccccc3-n3cccn3)CC2)nc1C(C)(C)O [Example 20, 2-[5-methyl-2-(4-{[2-(1H-pyrazol-1-yl)phenyl]carbonyl}-1,4-diazepan-1-yl)-1,3-oxazol-4-yl]propan-2-ol]	35	179	6290
CCOc1ncccc1C(=O)N1CCCN(c2nc(C(C)(C)O)c(C)o2)CC1 [Example 21, 2-(2-{4-[(2-ethoxypyridin-3-yl)carbonyl]-1,4-diazepan-1-yl}-5-methyl-1,3-oxazol-4-yl)propan-2-ol]	34	231	7890
CC(C)(O)c1csc(N2CCCN(C(=O)c3ccc(F)cc3-n3nccn3)CC2)n1 [Example 26, (4-fluoro-2-(2H-1,2,3-triazol-2-yl)phenyl)(4-(4-(2-hydroxypropan-2-yl)thiazol-2-yl)-1,4-diazepan-1-yl)methanone]	136	>73	> 10000

Further lines, results first:

IC50 (human orexin-2 receptor) [nM]	Fold Selectivity OX2R vs. OX1R (human orexin-2 receptor) [fold]	IC50 (rat orexin-1 receptor) [nM]	SMILES
90	>111	> 10000	CC(C)(O)c1csc(N2CCCN(C(=O)c3cccnc3OCC(F)F)CC2)n1 [Example 22, (2-(2,2-difluoroethoxy)pyridin-3-yl)(4-(4-(2-hydroxypropan-2-yl)thiazol-2-yl)-1,4-diazepan-1-yl)methanone]
57	>175	> 10000	CC(C)(O)c1csc(N2CCCN(C(=O)c3cccnc3OCC(F)(F)F)CC2)n1 [Example 23, (4-(4-(2-hydroxypropan-2-yl)thiazol-2-yl)-1,4-diazepan-1-yl)(2-(2,2,2-trifluoroethoxy)pyridin-3-yl)methanone]
216	>46	> 10000	CC(C)(O)c1csc(N2CCCN(C(=O)c3ccccc3OC(F)(F)F)CC2)n1 [Example 24, (4-(4-(2-hydroxypropan-2-yl)thiazol-2-yl)-1,4-diazepan-1-yl)(2-(trifluoromethoxy)phenyl)meth-anone]
108	>92	> 10000	CC(C)(O)c1csc(N2CCCN(C(=O)c3ccccc3C3CC3)CC2)n1 [Example 25, (2-cyclopropylphenyl)(4-(4-(2-hydroxypropan-2-yl)thiazol-2-yl)-1,4-diazepan-1-yl)methanone]
